Laboratory results from ChEMBL document CHEMBL1148084, “Novel naphthoquinones from Conospermum incurvum” (J Nat Prod, 1994).
The source made the active and inactive calls. The rule behind the calls is not given here.

System: Human immunodeficiency virus 1
Experiment: Antiviral activity against HIV1 in human cells by XTT assay
Type: functional, organism-based

SMILES	Activity
CC(C)=CCC[C@]1(C)C=Cc2c(ccc3c2C(=O)C(O)=C(C)C3=O)O1	inactive
CC1=C(O)C(=O)c2c(ccc3c2C=C[C@@](C)(CCCC(C)(C)O)O3)C1=O	inactive
CC(C)=CCC/C(C)=C/Cc1c(O)ccc2c1C(=O)C(O)=C(C)C2=O	inactive
COc1cc2c(cc1O)C(=O)C(C)=C(C)C2=O	inactive
COC1=C(C)C(=O)c2ccc3c(c2C1=O)C=C[C@@](C)(CCC=C(C)C)O3	inactive
COC1=C(C)C(=O)c2ccc3c(c2C1=O)C=C[C@@](C)(CCCC(C)(C)O)O3	inactive
